This is an account of results in PMC7502707, “Characterization and validation of a preventative therapy for hypertrophic cardiomyopathy in a murine model of the disease” (Proceedings of the National Academy of Sciences of the …, 2020).

One test relates to cTnI-G203S mice. Briefly: Echocardiography of treated cTnI-G203S mice. Type of test: in vivo, mouse. The conditions noted are these: Pre-HCM treatment (from 20 wk), 25-wk-old cTnI-G203S mice, 10 μM i.p. 3×/wk/5 wk; mean, n = 7 AID(S)-TAT, n = 6 AID-TAT. As for the experimental part: (§1) Male mice expressing the human cTnI gene encoding the human disease-causing mutation cTnI-G203S were used for all studies. The mice develop hallmark features of HCM by 21 wk ([7], [13]). Male mice expressing the normal human cTnI gene were used as controls (wt). Ten-week-old mice were used for in vitro studies. For in vivo studies, 20- or 30-wk-old cTnI-G203S mice were treated with 10 μM AID-TAT or AID[S]-TAT via intraperitoneal injection, 3×/wk/5 wk. In vivo dose of AID-TAT or AID[S]-TAT (10 μM) was calculated based on blood volume, equating to ∼2 mg/kg total BW. Male animal models were used to eliminate potential differences in responses due to sex. Experiments were performed in a total of 21 wt (AID[S]-TAT), 6 wt (AID-TAT), 15 cTnI-G203S (AID[S]-TAT), and 26 cTnI-G203S (AID-TAT) mice. All animals were randomly assigned to treatment groups. All animal studies were approved by the Animal Ethics Committee of The University of Western Australia in accordance with the 2013 Australian Code for the Care and Use of Animals for Scientific Purposes ([58]).
(§2) Echocardiographic measurement of left ventricular function were performed on mice under light methoxyflurane anesthesia using an i13L probe on a Vivid 7 Dimension ultrasound system (GE Healthcare), as previously described ([13], [29], [30]). Each n represents the average of quantitative measurements from wt or cTnI-G203S mice for each treatment group. Detailed methods are provided in SI Appendix.
(§3) Echocardiographic measurement of left ventricular function were performed on mice under light methoxyflurane anesthesia using an i13L probe on a Vivid 7 Dimension ultrasound system (GE Healthcare, Little Chalfont, United Kingdom) as previously described (4, 7). Echocardiographic measurements were taken on M-mode in triplicate from separate mice at a sweep speed of 200 mm/s. Each n represents the average of quantitative measurements from wt or cTnI-G203S mice for each treatment group. Measurements of left ventricular end diastolic diameter (LVEDD), left ventricular end systolic diameter (LVESD), fractional shortening (FS), left ventricular posterior wall in diastole (LVDPW), left ventricular posterior wall in systole (LVSPW), interventricular septum in diastole (IVSD), interventricular septum in systole (IVSS) and end diastolic diameter (EDD) were made. FS was calculated by the formula [(LVEDD-LVESD)/EDD] x 100. […]
(§4) (BioAssay Systems, Hayward CA). All assays were performed as per manufacturer’s instructions, using a spectrophotometer (PowerWave XS).

In another test the test system is wt mice. Briefly: Echocardiography of treated wt mice. It is filed as in vivo, mouse. The conditions noted are these: 25-wk-old wt mice, 10 μM i.p. 3×/wk/5 wk from 20 wk; mean, n = 4. As for the experimental part:
as §1, §2, §3, §4

The test system of test [1] is myocytes isolated from wt and cTnI-G203S mice. Briefly: Confocal imaging of F-actin (phalloidin) in myocytes from treated mice. Type of test: in vivo, mouse. The conditions noted are these: myocytes from cTnI-G203S mice treated 10 μM 3×/wk/5 wk, Pre HCM Rx. The procedure:
Following completion of treatment regimens, myocytes were isolated and prepared for confocal imaging based on previously described methods ([29]). Detailed methods are provided in SI Appendix.
Echocardiographic measurement of left ventricular function were performed on mice under light methoxyflurane anesthesia using an i13L probe on a Vivid 7 Dimension ultrasound system (GE Healthcare, Little Chalfont, United Kingdom) as previously described (4, 7). Echocardiographic measurements were taken on M-mode in triplicate from separate mice at a sweep speed of 200 mm/s. Each n represents the average of quantitative measurements from wt or cTnI-G203S mice for each treatment group. […] FS was calculated by the formula [(LVEDD-LVESD)/EDD] x 100.
Cell size was determined as previously described (16). […]
To measure kidney toxicity, urea and creatinine concentration was assessed using QuantiChrom Urea and Creatinine assay kits respectively (BioAssay Systems, Hayward CA). To measure liver toxicity, alanine transaminase (ALT) and aspartate transaminase (AST) concentration was measured using Alanine Transaminase and Aspartate Transaminase assay kits respectively (BioAssay Systems, Hayward CA). […]

The test system is the same in test [2]. Briefly: Mitochondrial membrane potential (JC-1) in myocytes isolated from treated mice. It is filed as in vivo, mouse.
Protocol: (§5) Male mice expressing the human cTnI gene encoding the human disease-causing mutation cTnI-G203S were used for all studies. […] Male mice expressing the normal human cTnI gene were used as controls (wt). Ten-week-old mice were used for in vitro studies. For in vivo studies, 20- or 30-wk-old cTnI-G203S mice were treated with 10 μM AID-TAT or AID[S]-TAT via intraperitoneal injection, 3×/wk/5 wk. In vivo dose of AID-TAT or AID[S]-TAT (10 μM) was calculated based on blood volume, equating to ∼2 mg/kg total BW. Male animal models were used to eliminate potential differences in responses due to sex. Experiments were performed in a total of 21 wt (AID[S]-TAT), 6 wt (AID-TAT), 15 cTnI-G203S (AID[S]-TAT), and 26 cTnI-G203S (AID-TAT) mice. All animals were randomly assigned to treatment groups.
Fluorescence was measured on a Hamamatsu Orca ER digital camera attached to an inverted Nikon TE2000-U microscope. Fluorescent indicator 5,5′,6,6′-tetrachloro-1,1′,3,3′-tetraethylbenzimidazolylcarbocyanine iodide was used to measure Ψm in cardiac myocytes, as previously described (JC-1, Molecular Probes) ([61]). Autofluorescence was used to measure flavoprotein oxidation in cardiac myocytes based on previously described methods ([13], [29], [62]). Responses to drugs were reported as a percentage increase from the basal average.
Cells were incubated in calcium-free HBS (supplemented with 3 mM EGTA and 200 nM JC-1) for at least 3 h prior to measuring changes in m. Sodium cyanide (NaCN, 40 mM, mitochondrial electron transport blocker) was added at the end of each experiment to collapse m, confirming that the JC-1 signal was indicative of m.
Additionally, individual 580 nm and 535 nm wavelength signals were assessed in each experiment to determine whether the fluorescent indicator was accurately measuring m. Autofluorescence was used to measure flavoprotein oxidation in cardiac myocytes based on previously described methods (ex = 480 nm, em = 535 nm, interval = 1 min, exposure = 1.5 seconds) (4, 6, 7). Carbonyl cyanide-4-(trifluoromethoxy)phenylhydrazone (FCCP, 50 μM, mitochondrial electron transport chain uncoupler) was added at the end of each experiment to increase flavoprotein oxidation confirming signal was mitochondrial in origin. Ratiometric JC-1 or flavoprotein fluorescent signals were quantified by manually tracing myocytes and subtracting an equivalent background region
Responses to drugs were reported as a percentage increase from the basal average. […]
For test [3] the test system is unchanged. Briefly: MTT assay (formation of formazan) in myocytes isolated from treated mice. Type of test: in vivo, mouse. The conditions noted are these: for effect on metabolic activity (MTT): myocytes from wt or cTnI-G203S mice treated with AID(S)-TAT or AID-TAT, oligomycin 20 µM; for effect on BayK(−)-induced increase in metabolic activity (MTT): applied to myocytes from treated mice, nisoldipine 15 μM, Ru360 15 µM, dantrolene 20 µM. The procedure: The rate of reduction of MTT (Sigma-Aldrich) to formazan by the mitochondrial electron transport chain was measured in intact mouse cardiac myocytes, as previously described ([22], [25]). Each n represents number of replicates for each treatment group from cardiac myocytes isolated from a total of six wt [AID(S)-TAT], four cTnI-G203S [AID(S)-TAT], and three (AID-TAT) mice. Detailed methods are provided in SI Appendix. […]
The rate of reduction of 3-(4,5-Dimethyl-2-thiazolyl)-2,5-diphenyl-2H-tetrazolium bromide (MTT, Sigma-Aldrich, St. Louis, Missouri) to formazan by the mitochondrial electron transport chain was measured in intact mouse cardiac myocytes as previously described (1, 9). This reaction is dependent upon the presence of reduced nicotinamide adenine dinucleotide (NADH) and reduced nicotinamide adenine dinucleotide phosphate (NADPH), and intact mitochondrial electron transport (10). Cardiac myocytes were treated with relevant drugs in 96 well plates. MTT was added to each well to a final concentration of 0.5 mg/ml and the rate of the increase in absorbance immediately measured using a spectrophotometer at 37°C (PowerWave XS, 570 nm, reference wavelength of 620 nm). The rate of the increase in absorbance in response to treatments was expressed as a percentage of the rate of the increase prior to the addition of treatments. Each n represents number of replicates for each treatment group from cardiac myocytes isolated from a total of 6 wt (AID[S]- TAT), 4 cTnI-G203S (AID[S]-TAT), and 3 (AID-TAT) mice.
Immunoblot of ICa-L protein
A general note: Formazan colour is commonly taken as a measure of viable cells.

The test system is the same in test [4]. Nature of the test: Flavoprotein oxidation in myocytes isolated from treated mice. Type of test: in vivo, mouse. The conditions noted are these: applied to myocytes from treated wt or cTnI-G203S mice; nisoldipine 15 μM.
Protocol: as §5
Fluorescence was measured on a Hamamatsu Orca ER digital camera attached to an inverted Nikon TE2000-U microscope. […]
Additionally, individual 580 nm and 535 nm wavelength signals were assessed in each experiment to determine whether the fluorescent indicator was accurately measuring m. […] Ratiometric JC-1 or flavoprotein fluorescent signals were quantified by manually tracing myocytes and subtracting an equivalent background region […]
For test [5], the system named is mice expressing β-MHC mutations. The conditions noted are these: precardiomyopathic mice expressing β-MHC mutations, compared to untreated mutants; cited from earlier work. From the text:
Patients with HCM often present with early hypercontractility that stems from a high-degree of actin–myosin cross-linking ([36]). […] Recent studies have investigated the efficacy of a cardiac-specific small-molecule, Mavacamten (MYK-461), that inhibits β-MHC/actin binding and subsequently reduces sarcomere force output and contractility ([39], [40]), as a potential HCM therapeutic. Treatment of precardiomyopathic mice expressing β-MHC mutations with M ...

Marks after values point to notes of the source that are not given here.

In the case of “QKILGEWDLAQYTDQELE [AID(S)-TAT, reference compound]”, in the test on cTnI-G203S mice, the FS is 47.39 ^* %, the “HW:BW” value is given as 5.14 ^* mg/g, the IVSD is recorded as 0.85 ^* mm and the IVSS is given as 0.96 ^* mm. Further, in the test on cTnI-G203S mice, the LVDPW came to 1.31 mm, the LVEDD is recorded as 3.08 ^* mm, the LVESD is 1.62 ^* mm and the LVSPW is listed as 1.43 mm. Moreover, in the test with wt mice, the FS amounted to 35.08%, the “HW:BW” value was found to be 4.33 mg/g, the IVSD is 0.76 mm and the IVSS is 0.86 mm. In the test with wt mice, the LVDPW was 1.26 mm, the LVEDD was determined as 3.56 mm, the LVESD is on record as 2.31 mm and the LVSPW came to 1.42 mm. Also, the F-actin organization entry in test [1] is on record as “F-actin disorganization”.
Take `COC(=O)C1=C(C)NC(C)=C([N+](=O)[O-])C1c1ccccc1C(F)(F)F` (stereo not drawn) [BayK(+), reference compound]: the “effect on Ψm” value in test [2] (myocytes from wt or cTnI-G203S mice treated with AID(S)-TAT or AID-TAT) is listed as “did not significantly alter Ψm”. Also, the “effect on metabolic activity (MTT)” value in test [3] is “did not significantly alter metabolic activity”.
In the case of `CC[C@H]1/C=C/C=C/C[C@@H](C)[C@H](O)[C@@](C)(O)C(=O)[C@@H](C)[C@H](O)[C@@H](C)C(=O)[C@@H](C)[C@H](O)[C@@H](C)/C=C/C(=O)O[C@@H]2[C@H](C)[C@H](CC1)O[C@]1(CC[C@H](C)[C@H](C[C@@H](C)O)O1)[C@H]2C` [Oligomycin], the “effect on metabolic activity (MTT)” value in test [3] is recorded as “significant decrease in metabolic activity”.
In the case of `O=C1CN(/N=C/c2ccc(-c3ccc([N+](=O)[O-])cc3)o2)C(O)=N1` [dantrolene], in test [3], the “effect on BayK(−)-induced increase in metabolic activity (MTT)” value (shortened to “effect on BayK(−)-induced increase … (MTT)”) is reported as “but not with ryanodine receptor blocker dantrolene”.
Consider `COC(=O)C1=C(C)NC(C)=C(C(=O)OCC(C)C)C1c1ccccc1[N+](=O)[O-]` (centres unmarked) [nisoldipine, reference compound], for which, in test [2] (applied to myocytes from treated wt or cTnI-G203S mice, nisoldipine 15 μM), the “effect on BayK(−)-induced increase in Ψm” value was “attenuated”. Moreover, the “effect on BayK(−)-induced increase in flavoprotein oxidation” value in test [4] is on record as “attenuated”. The “effect on BayK(−)-induced increase … (MTT)” value in test [3] is listed as “attenuated”.
For the molecule `CC(C)n1c(=O)cc(N[C@@H](C)c2ccccc2)[nH]c1=O` [MYK-461, Mavacamten], the “left ventricular wall thickness, FS, fibrosis and myocyte organization” value in test [5] was “reduce left ventricular wall thickness, FS, and fibrosis, and improve myocyte organization”.
As for Ru360, the “effect on BayK(−)-induced increase … (MTT)” value in test [3] is given as “attenuated”.
